According to US7371871B2, “Inhibitors of glutaminyl cyclase” (Probiodrug AG, priority 2003, dated 2008):

Key:
human QC [1] = molecular target: T1, human QC (Homo sapiens, UniProt Q16769); conditions: Busby, W. H. J. et al. 1987; cited from earlier work
human QC [2] = molecular target: T1, human QC; experiment: Inhibitor assay of glutaminyl cyclase (QC), determination of Ki-values; conditions: for inhibition of human QC (in words): Example 5
Method: Excitation/emission wavelengths were 320/410 nm. The assay reactions were initiated by addition of glutaminyl cyclase.
Reactions were carried out at 30° C. utilizing the NOVOStar reader for microplates (BMG labtechnologies). […] Excitation/emission wavelengths were 380/460 nm. The assay reactions were initiated by addition of glutaminyl cyclase. […] The kinetic data were evaluated using GraFit sofware.
The initial velocities were evaluated and the enzymatic activity was determined from a standard curve of ammonia under assay conditions. All samples were measured at 30° C., using either the [sequence]luor Plus or the Sunrise (both from TECAN) reader for microplates. Kinetic data was evaluated using GraFit software.
For inhibitor testing, the sample composition was the same as described above, except of the putative inhibitory compound added. […] For detailed investigations of the inhibition and determination of Ki-values, influence of the inhibitor on the auxiliary enzymes was investigated first.

T1 sequence (Q16769 29-361): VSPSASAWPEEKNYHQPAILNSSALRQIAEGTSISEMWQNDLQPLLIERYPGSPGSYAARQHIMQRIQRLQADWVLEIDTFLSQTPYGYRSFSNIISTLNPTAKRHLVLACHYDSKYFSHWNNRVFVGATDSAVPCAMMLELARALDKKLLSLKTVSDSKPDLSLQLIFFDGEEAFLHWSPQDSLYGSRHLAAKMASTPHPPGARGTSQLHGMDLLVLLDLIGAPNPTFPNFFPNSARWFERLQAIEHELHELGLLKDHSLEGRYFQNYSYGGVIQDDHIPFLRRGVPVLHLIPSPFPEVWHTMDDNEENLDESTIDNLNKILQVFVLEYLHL

Row | Compound | inhibition of human QC detected (human QC [1]) | inhibition of human QC (in words) (human QC [2]) | other results
1 | c1cnc2c(c1)ccc1cccnc12 [1,10-phenanthroline] | inhibition |  | 
2 | Cn1cnc(CCN)c1 [1-methyl-4-(β-amino-ethyl)-imi-dazole] |  | complete loss of inhibitory activity | 
3 | c1ccc(-n2ccnc2)cc1 [1-phenylimidazole] |  | inactive | 
4 | CC(=O)c1ccc(NC(=S)NCCCn2ccnc2)cc1 [Example 9] |  |  | Ki (human QC [2]): 1790 nM
5 | reduced 6-methylpterin | inhibition |  | 
